Reference: PMC9820568, “Near-Infrared Imaging of Steroid Hormone Activities Using Bright BRET Templates” (International Journal of Molecular Sciences, 2022)

What was measured:
NLuc (NanoLuc) [1] = molecular target: T1, NLuc (NanoLuc) (Oplophorus gracilirostris, UniProt Q9GV45, A31E/Q38R/Q45L/L54V/A60N/K70R/V71I/A81I/F95D/L99Q/M102K/I117V/P142E/Q151K/Y165I/N193R); test: bioluminescence imaging and spectra, COS-7; assay type: cell-based; settings: live cells and lysate; […] substrate in PBS
T1 construct: engineered NanoLuc variant of the 19 kDa subunit, expressed from pcDNA3.1(+) in COS-7, mostly cytosolic

NLuc (NanoLuc) [2] = molecular target: T1, NLuc (NanoLuc); test: bioluminescence spectra, COS-7 lysate; assay type: biochemical; settings: substrate solution […] in PBS
[3] = molecular target: T2, LSSmNep-GR5GS-NLuc (GR HLBD) (Homo sapiens, UniProt P04150); test: NIR-BRET, COS-7 stably expressing single-chain probe; assay type: cell-based; settings: live cells stimulated […] h; DBlueC substrate; […] nm filter
T2 construct: gene NR3C1; stably expressed in COS-7
T2 sequence (P04150 486-777): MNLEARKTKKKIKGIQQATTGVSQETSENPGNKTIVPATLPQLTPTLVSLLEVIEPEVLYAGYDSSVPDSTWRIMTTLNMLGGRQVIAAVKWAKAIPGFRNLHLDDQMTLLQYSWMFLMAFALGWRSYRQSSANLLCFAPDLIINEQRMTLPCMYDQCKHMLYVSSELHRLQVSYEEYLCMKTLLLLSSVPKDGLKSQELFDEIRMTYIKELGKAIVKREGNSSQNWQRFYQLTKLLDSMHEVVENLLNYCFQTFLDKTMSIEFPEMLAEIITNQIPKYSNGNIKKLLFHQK

T1 sequence (Q9GV45 28-196 with the stated changes): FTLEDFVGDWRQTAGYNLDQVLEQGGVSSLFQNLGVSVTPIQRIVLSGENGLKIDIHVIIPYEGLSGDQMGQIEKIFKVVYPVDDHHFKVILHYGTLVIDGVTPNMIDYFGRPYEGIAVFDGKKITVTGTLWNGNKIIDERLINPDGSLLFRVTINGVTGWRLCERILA

Oc1c(Cc2ccccc2)nc2c(Cc3ccccc3)nc(-c3ccccc3)cn12 [DBlueC, DeepBlueC]
bioluminescence imaging and spectra, COS-7 (NLuc (NanoLuc) [1]): DBlueC and nCTZ were exclusively bright with NLuc and ALuc47, respectively

Oc1ccc(Cc2nc3c(Cc4ccccc4)nc(-c4ccc(O)cc4)cn3c2O)cc1 [nCTZ, native coelenterazine]
bioluminescence spectra, COS-7 lysate (NLuc (NanoLuc) [2]): The nCTZ was commonly bright among all the tested marine luciferases

C[C@]12CCC(=O)C=C1CC[C@@H]1[C@@H]2[C@@H](O)C[C@@]2(C)[C@H]1CC[C@]2(O)C(=O)CO [cortisol]
fold NIR-BRET intensity at 10^-6 M [3]: 1.3 fold
